# From patent US6905834B1, “Bioluminescent bioreporter integrated circuit detection methods” (UT-Battelle, LLC, priority 1997, dated 2005)
# Read-outs that look alike come from different tables or passages of the source.
# How the values were obtained:
# [1] = Adsorption isotherms on calcium alginate; assay type: physicochemical
# Protocol: Tracer concentrations were measured using a Waters ion-chromatography system with a series 510 HPLC pump, IC-PAK anion exchange column, and 431 conductance detector (Waters, Cam-bridge, MA) or monitored continuously using fluorescence.
# P. fluorescens HK44 = assay type: cell-based, Pseudomonas fluorescens
# Source text: A previously developed PBR system with on-line instrumentation (Webb, 1992; Webb et al., 1991) was used to measure bacterial degradative and bioluminescent activity under conditions mimicking those of the subsurface. The reactor design is detailed in FIG. 21. The PBR was temperature controlled and fitted with metal frits welded to the inlet and outlet to retain and distribute feed to immobilized cultures. An additional inter-cavity insert allowed the installation of filters (e.g., […] inorganic and polymeric) between the packed bed and outlet frit that filtered the effluent for automatic injection into the on-line high-performance liquid chromatography (HPLC) and that produced a uniform resistance to flow that improved the overall distribution to the reactor (Webb, 1992). […] HPLC pumps supplied media to each reactor from pressurized feed reservoirs. All nutrients, including oxygen, entered the reactor dissolved in the liquid phase. Naphthalene and salicylate were detected with an on-line HPLC using a Vydac TP20154 column (Sep/A/Ra/Tions Group, Hesperia, Calif.) with a FL-4 dual-monochromator fluorescent detector (Perkin-Elmer, Norwalk, Conn.). Respective excitation and emission wavelengths for salicylate detection were 290 and 360 nm. The reactor was fitted with an on-line light detector for monitoring bioluminescent activity (Dunbar, 1992) consisting of a glued fiber bundle (Ensign Bickford Optics, Simsbury, Conn.) placed approximately 2.5 cm from the entrance of the reactor. An Oriel Inc. (Stratford, Conn.) 7070 photomultiplier detection system using a Model 77348 photomultiplier tube (radiant sensitivity of […] near 500 nm) were employed.
# Mineral salts media (pH 7.2) consisting of MgSO4 7H2O ([…]), NH4NO3 ([…]), trizma™ base ([…]), MgO (1.0×10^−3 g/l), CaCl2 (2.9×10^−4 g/l), FeCl3.6H2O (5.4×10^−4 g/l), ZnSO4.7H2O (1.4×10^−4 g/l), CuSO4 (2.5×10^−5 g/l), […] (6.2×10^−6 g/l), and Na2MoO4.H2O (4.9×10^−5 g/l) were supplied to the reactor with an appropriate carbon source for degradation and bioluminescence studies. Kinetic bacterial studies were phosphate limited and maintained aerobic by con-trolled pressurization of feeds and the reactor.
# The HK44 was prepared for immobilization by adding freshly thawed inoculum (frozen at −70° C. until use) to 100 mL of YEPG media which contained glucose (1.0 g/l), polypeptone (2.0 g/l), yeast extract (0.2 g/l), NH4NO3 (0.2 g/l), and tetracycline (14 mg/l). The culture was shaken for 15 hours at 25° C. and then centrifuged at 8000 rpm for 10 minutes. The pellet was then washed with 0.9% NaCl solution three times before immobilization. The concentration of HK44 was enumerated by measuring optical density at 546 nm. The HK44 was immobilized by suspending bacteria in 0.9% NaCl solution and mixing with a low-viscosity alginate (28 g/L) and NaCl (9 g/L) solution in a ratio of 1:2 by volume. Beads were formed by controlled dropwise addition to 0.1 M CaCl2 solution by a syringe needle installed in an air jet controlled by a precision regulator (Porter Instrument Co., Hatfield, Pa.) and a piece of 0.003-in. (i.d.) tubing. Beads diameters were measured using gentle wet sieving. Alginate beads were dissolved in 50 mM sodium hexametaphosphate. […]
smiles,measurement,setting,value
"O=C([O-])c1ccccc1O.[Na+] [Sodium salicylate, sodium salicylate]",adsorption on calcium alginate (in words),[1]; listed as Salicylate,did not measurably absorb
same,adsorption on calcium alginate (in words),[1]; listed as salicylate,did not appreciably partition
same,"least-squares reaction rate constant, overall second order model","P. fluorescens HK44; complete data set, figure legends",2.23×10^−2 dm^3/g mol
same,Salicylate effluent ± σ,"P. fluorescens HK44; experiment 1a, biomass 3.3 × 10^9 cells/mL, feed 2.25 mg/L, τ 14 min",1.43 ± 2.85 × 10^−2 mg/L
same,Salicylate effluent ± σ,"P. fluorescens HK44; experiment 1b, biomass 3.3 × 10^9 cells/mL, feed 2.25 mg/L, τ 58 min",0.46 ± 0.84 × 10^−2 mg/L
same,Salicylate effluent ± σ,"P. fluorescens HK44; experiment 1c, biomass 3.3 × 10^9 cells/mL, feed 2.25 mg/L, τ 14 min",1.65 ± 4.77 × 10^−2 mg/L
same,Salicylate effluent ± σ,"P. fluorescens HK44; experiment 2a, biomass 3.5 × 10^9 cells/mL, feed 2.47 mg/L, τ 24 min",1.03 ± 2.83 × 10^−2 mg/L
same,Salicylate effluent ± σ,"P. fluorescens HK44; experiment 2b, biomass 3.5 × 10^9 cells/mL, feed 2.47 mg/L, τ 26 min",0.86 ± 0.93 × 10^−2 mg/L
same,Salicylate effluent ± σ,"P. fluorescens HK44; experiment 2c, biomass 3.5 × 10^9 cells/mL, feed 2.47 mg/L, τ 94 min",0.20 + 0.28 × 10^−2 mg/L
same,Salicylate effluent ± σ,"P. fluorescens HK44; experiment 3a, biomass […] 10^9 cells/mL, feed 4.45 mg/L, τ 15 min",4.06 ± 8.85 × 10^−2 mg/L
same,Salicylate effluent ± σ,"P. fluorescens HK44; experiment 3b, biomass […] 10^9 cells/mL, feed 4.45 mg/L, τ 18 min",3.84 ± 6.99 × 10^−2 mg/L
same,Salicylate effluent ± σ,"P. fluorescens HK44; experiment 3c, biomass […] 10^9 cells/mL, feed 4.45 mg/L, τ 24 min",3.42 ± 8.55 × 10^−2 mg/L
same,Salicylate effluent ± σ,"P. fluorescens HK44; experiment 3f, biomass […] 10^9 cells/mL, feed 4.45 mg/L, τ 24 min",3.12 ± 4.09 × 10^−2 mg/L
same,Salicylate effluent ± σ,"P. fluorescens HK44; experiment 4b, biomass […] 10^9 cells/mL, feed 4.45 mg/L, τ 36 min",2.76 ± 3.95 × 10^−2 mg/L
same,Salicylate effluent ± σ,"P. fluorescens HK44; experiment 4c, biomass […] 10^9 cells/mL, feed 4.45 mg/L, τ 48 min",2.25 ± 3.47 × 10^−2 mg/L
same,Salicylate effluent ± σ,"P. fluorescens HK44; experiment 4e, biomass […] 10^9 cells/mL, feed 4.45 mg/L, τ 150 min",0.89 ± 1.54 × 10^−2 mg/L
same,Salicylate effluent ± σ,"P. fluorescens HK44; experiment 4f, biomass […] 10^9 cells/mL, feed 4.45 mg/L, τ 48 min",2.24 + 3.49 × 10^−2 mg/L
same,Salicylate effluent ± σ,"P. fluorescens HK44; experiment 3d, biomass […] 10^9 cells/mL, feed 4.45 mg/L, τ 36 min",2.77 + 4.24 × 10^−2 mg/L
same,Salicylate effluent ± σ,"P. fluorescens HK44; experiment 4d, biomass […] 10^9 cells/mL, feed 4.45 mg/L, τ 72 min",1.75 ± 2.03 × 10^−2 mg/L
same,"salicylate degradation rate constant (first order in biomass, first order in salicylate)",P. fluorescens HK44; fitted to subset 1a-c,1.88×10^−2 dm^3 g^−1 min^−1
same,"salicylate degradation rate constant (first order in biomass, first order in salicylate)",P. fluorescens HK44; fitted to subset 2a-c,2.85×10^−2 dm^3 g^−1 min^−1
same,"salicylate degradation rate constant (first order in biomass, first order in salicylate)",P. fluorescens HK44; fitted to subset 3a-f,2.06×10^−2 dm^3 g^−1 min^−1
same,"salicylate degradation rate constant (first order in biomass, first order in salicylate)",P. fluorescens HK44; fitted to subset 4a-f,2.28×10^−2 dm^3 g^−1 min^−1
same,"salicylate degradation rate constant (first order in biomass, first order in salicylate)",P. fluorescens HK44; fitted to the complete set,2.23×10^−2 dm^3 g^−1 min^−1
same,"slope of best-fit line, specific light response vs predicted salicylate concentration at the light probe",P. fluorescens HK44; studies 2a-c,1.4
same,"slope of best-fit line, specific light response vs predicted salicylate concentration at the light probe",P. fluorescens HK44; studies 3c-e,2.3
same,"slope of best-fit line, specific light response vs predicted salicylate concentration at the light probe",P. fluorescens HK44; studies 4c-f,1.5
same,conversion,P. fluorescens HK44; study 1a,0.64
same,conversion,P. fluorescens HK44; study 1c,0.73
same,conversion,P. fluorescens HK44; study 3c,0.77
same,conversion,P. fluorescens HK44; study 3e,0.41
same,conversion,P. fluorescens HK44; study 3f,0.70
same,conversion,P. fluorescens HK44; study 4b,0.62
same,conversion,P. fluorescens HK44; study 4c,0.50
same,conversion,P. fluorescens HK44; study 4f,0.50
same,conversion,P. fluorescens HK44; study 3d,0.62
same,conversion,P. fluorescens HK44; study 4d,0.39
